# Measured values reported in patent US7902354B2, “Lapachone compounds and methods of use thereof” (ArQule, Inc., priority 2006, dated 2011).
# Legend:
# [1] = test system: DLD-1 human colon carcinoma cells; test: MTS cell viability assay, DLD-1 human colon carcinoma cells; assay type: cell-based; details: DLD-1, 4 h compound incubation, MTS, read-out: IC50 Values, Cancerous Cells, Colon DLD-1
# [2] = test system: A549 human lung carcinoma cells; test: MTS cell viability assay, A549 human lung carcinoma cells; assay type: cell-based; details: A549, 4 h compound incubation, MTS, read-out: IC50 Values, Cancerous Cells, Lung A549
# [3] = test system: PACA-2 human pancreatic carcinoma cells; test: MTS cell viability assay, PACA-2 human pancreatic carcinoma cells; assay type: cell-based; details: PACA-2, 4 h compound incubation, MTS, read-out: IC50 Values, Cancerous Cells, Pancreas PACA-2
# [4] = test system: K-562 human leukemia cells; test: MTS cell viability assay, K-562 human leukemia cells; assay type: cell-based; details: K562, K-562, 4 h compound incubation, MTS, read-out: IC50 Values, Cancerous Cells, Leukemia K-562
# [5] = test system: DU-145 human prostate carcinoma cells; test: MTS cell viability assay, DU-145 human prostate carcinoma cells; assay type: cell-based; details: DU-145, 4 h compound incubation, MTS, read-out: IC50 Values, Cancerous Cells, Prostate DU-145
# [6] = test system: NCM-460 normal colon epithelial cells; test: MTS cell viability assay, NCM-460 normal colon epithelial cells; assay type: cell-based; details: for IC50: Homo sapiens, NCM460, NCM-460, 4 h compound incubation, MTS, read-out: IC50 Values, Normal Cells, Colon NCM-460; for Fold Selectivity (NCM-460/DLD1): ratio of IC50 NCM-460 / DLD1
SMILES,melting point [°C],other results
"O=C1C(=O)c2ccccc2C2=C1SCC1(CCN(C(=O)C(Cl)c3ccccc3)CC1)O2 (centres unmarked) [Compound 50, 1′-[chloro(phenyl)acetyl]spiro[naphtho[1,2-b][1,4]oxathiine-2,4′-piperidine]-5,6-dione]",–,IC50 [1]: 1.54 µM; IC50 [2]: 5.41 µM; IC50 [3]: 1.42 µM; IC50 [4]: 1.44 µM; IC50 [5]: 3.55 µM; IC50 [6]: 7.14 µM; Fold Selectivity (NCM-460/DLD1) [6]: 4.6
"O=C1C(=O)c2ccccc2C2=C1SCC1(CCN(C/C=C/c3ccccc3)CC1)O2 [Compound 139, 1′-[(2E)-3-phenylprop-2-en-1-yl]spiro[naphtho[1.2-b][1,4]oxathiine-2,4′-piperidine]-5,6-dione]",–,IC50 [1]: 4.32 µM; IC50 [2]: 27.8 µM; IC50 [3]: 4.17 µM; IC50 [4]: 4.8 µM; IC50 [5]: 4.42 µM; IC50 [6]: 19.5 µM; Fold Selectivity (NCM-460/DLD1) [6]: 4.5
"COc1ccc2c(c1)C1=C(SCC3(CCNCC3)O1)C(=O)C2=O [Compound 20, 9-methoxyspiro[naphtho[1,2-b][1,4]oxathiine-2,4′-piperidine]-5,6-dione]",–,IC50 [1]: 49.5 µM; IC50 [2]: > 100 µM; IC50 [3]: 27.5 µM; IC50 [4]: 48 µM; IC50 [5]: 60.5 µM; IC50 [6]: 61.7 µM; Fold Selectivity (NCM-460/DLD1) [6]: 1.2
"Cc1nn(-c2ccccc2)nc1C(=O)N1CCC2(CC1)CSC1=C(O2)c2ccccc2C(=O)C1=O [Compound 58, 1′-[(5-methyl-2-phenyl-2H-1,2,3-triazol-4-yl)carbonyl]spiro[naphtho[1,2-b][1,4]oxathiine-2,4′-piperidine]-5,6-dione]",–,IC50 [1]: 13.7 µM; IC50 [2]: 42.2 µM; IC50 [3]: 11 µM; IC50 [4]: 14.2 µM; IC50 [5]: 12.2 µM; IC50 [6]: 79.9 µM; Fold Selectivity (NCM-460/DLD1) [6]: 5.8
"O=C1C(=O)c2ccccc2C2=C1SCC1(CCN(CC3CC3)CC1)O2 [Compound 122, 1′-(cyclopropylmethyl)spiro[naphtho[1,2-b][1,4]oxathiine-2,4′-piperidine]-5,6-dione]",–,IC50 [1]: 1.66 µM; IC50 [2]: 6.02 µM; IC50 [3]: 1.31 µM; IC50 [4]: 1.45 µM; IC50 [5]: 2.02 µM; IC50 [6]: 3.37 µM; Fold Selectivity (NCM-460/DLD1) [6]: 2.0
"N#Cc1ccc(CN2CCC3(CC2)CSC2=C(O3)c3ccccc3C(=O)C2=O)cc1 [Compound 123, 4-[(5,6-dioxo-5,6-dihydro-1′H-spiro[naphtho[1,2-b][1,4]oxathiine-2,4′-piperidine]-1′-yl)methyl]benzonitrile]",–,IC50 [1]: 4.37 µM; IC50 [2]: 36.8 µM; IC50 [3]: 4.18 µM; IC50 [4]: 4.09 µM; IC50 [5]: 4.32 µM; IC50 [6]: 9.96 µM; Fold Selectivity (NCM-460/DLD1) [6]: 2.3
O=C1C(=O)c2ccc(Cl)cc2C2=C1SCC1(CCN(C[C@@H](O)Cc3ccccc3)CC1)O2,92 to 96,–
CC(C)OCC(O)CN1CCC2(CC1)CSC1=C(O2)c2ccccc2C(=O)C1=O (centres unmarked),97 to 99,–
O=C1C(=O)c2ccccc2C2=C1SCC1(CCN(C3CCCC3O)CC1)O2 (centres unmarked),110 to 113,–
O=C1C(=O)c2ccccc2C2=C1SCC1(CCCN(C(=O)c3cccc(Cl)c3)CC1)O2 (centres unmarked),98 to 100,–
O=C1C(=O)c2ccccc2C2=C1SCC1(CCN(CCc3ccccc3)CC1)O2,117 to 118,–
Cl.Cl.O=C1C(=O)c2ccc(N3CCOCC3)cc2C2=C1SCC1(CCNCC1)O2,> 300,–
CC(C)(C)c1ccc(OC[C@H](O)CN2CCC3(CC2)CSC2=C(O3)c3cc(-c4ccccc4)ccc3C(=O)C2=O)cc1,94 to 97,–
O=C1C(=O)c2ccc(Cl)cc2C2=C1SCC1(CCN(C[C@H](O)Cc3ccccc3)CC1)O2,92 to 93,–
O=C1C(=O)c2ccc(Br)cc2C2=C1SCC1(CCN(C(=O)Oc3cccc(C(F)(F)F)c3)CC1)O2,210 to 211,–
O=C1C(=O)c2ccccc2C2=C1SCC1(CCN(c3cc(Cl)ncn3)CC1)O2,172 to 174,–
O=C1C(=O)c2ccccc2C2=C1SCC1(CCC(c3ccccc3)CC1)O2 (centres unmarked),183 to 187,–
CC(C)(C)c1ccc(OC[C@@H](O)CN2CCCC3(CSC4=C(O3)c3ccccc3C(=O)C4=O)C2)cc1 (some centres unmarked),90 to 92,–
O=C1C(=O)c2ccccc2C2=C1SCC1(CCN(C[C@H](O)COc3ccc4ccccc4c3)CC1)O2,164 to 167,–

SMILES,melting point [°C],other results
O=C1C(=O)c2ccc(-c3ccncc3)cc2C2=C1SCC1(CCNCC1)O2,223 to 228,–
COc1ccc2c(c1)C1=C(SCC3(CCN(C(=O)c4cccc(Cl)c4)CC3)O1)C(=O)C2=O,125 to 127,–
CC(C)(C)OC(=O)N1CCC2(CC1)CSC1=C(O2)c2cc(-c3ccc(C(F)(F)F)cc3)ccc2C(=O)C1=O,238 to 240,–
O=C1C(=O)c2ccc(-c3ccccc3C(F)(F)F)cc2C2=C1SCC1(CCNCC1)O2,125 to 127,–
CC(C)(C)c1ccc(OC[C@@H](O)CN2CCC3(CC2)CSC2=C(O3)c3cc(F)ccc3C(=O)C2=O)cc1,114 to 116,–
O=C1C(=O)c2ccccc2C2=C1SCC1(CCN(C[C@H](O)COc3ccc(C(=O)OCc4ccccc4)cc3)CC1)O2,83 to 84,–
CN(C)S(=O)(=O)N1CCC2(CC1)CSC1=C(O2)c2ccccc2C(=O)C1=O,215 to 218,–
O=C1C(=O)c2ccc(-c3ccccc3)cc2C2=C1SCC1(CCN(C(=O)c3cccc(Cl)c3)CC1)O2,240 to 241,–
O=C1C(=O)c2ccc(-c3cccnc3)cc2C2=C1SCC1(CCNCC1)O2,213 to 215,–
CC(C)(C)c1ccc(OC[C@@H](O)CN2CCC3(CC2)CSC2=C(O3)c3cc(N4CCOCC4)ccc3C(=O)C2=O)cc1,107 to 109,–
CC(C)(C)OC(=O)N1CCC2(CC1)CSC1=C(O2)c2cc(-c3cccc(C(F)(F)F)c3)ccc2C(=O)C1=O,231 to 233,–
O=C1C(=O)c2ccc(Cl)cc2C2=C1SCC1(CCN(C(=O)c3cccc(Cl)c3)CC1)O2,125 to 130,–
CC(C)(C)c1ccc(OC[C@@H](O)CN2CCC(N3CCC4(CC3)CSC3=C(O4)c4ccccc4C(=O)C3=O)CC2)cc1,190 to 193,–
O=C1C(=O)c2ccccc2C2=C1SCC1(CCCN(C(=O)Oc3cccc(C(F)(F)F)c3)CC1)O2 (centres unmarked),111 to 114,–
COc1ccc2c(c1)C1=C(SCC3(CCN(C[C@H](O)Cc4ccccc4)CC3)O1)C(=O)C2=O,106,–
O=C1C(=O)c2ccccc2C2=C1SCC1(CCN(C(=O)/C=C/c3ccccc3Cl)CC1)O2,110 to 115,–
CC(C)N1CCC2(CC1)CSC1=C(O2)c2ccccc2C(=O)C1=O,197 to 198,–
O=C1C(=O)c2ccc(-c3ccccc3)cc2C2=C1SCC1(CCN(C[C@H](O)COc3ccc(Cl)cc3)CC1)O2,93 to 98,–
O=C1C(=O)c2ccc(-c3ccncc3)cc2C2=C1SCC1(CCN(C(=O)c3cccc(Cl)c3)CC1)O2,265 to 267,–

SMILES,melting point [°C],other results
O=C1C(=O)c2ccccc2C2=C1SCC1(CCN(CC3CCCO3)CC1)O2 (centres unmarked),155 to 159,–
Cl.O=C1C(=O)c2ccccc2C2=C1SCC1(CCN(C(=O)C3CCNCC3)CC1)O2,94 to 100,–
COc1ccc2c(c1)C1=C(SCC3(CCN(C(=O)Oc4cccc(C(F)(F)F)c4)CC3)O1)C(=O)C2=O,88 to 89,–
COc1ccc2c(c1)C(=O)C(=O)C1=C2OC2(CCN(C[C@H](O)COc3ccc(C(C)(C)C)cc3)CC2)CS1,188 to 190,–
O=C1C(=O)c2ccc(Br)cc2C2=C1SCC1(CCN(C[C@H](O)COc3ccc4cc(Br)ccc4c3)CC1)O2,104 to 105,–
CC(C)(C)OC(=O)N1CCC2(CC1)CSC1=C(O2)c2cc(-c3ccccc3C(F)(F)F)ccc2C(=O)C1=O,223 to 225,–
CC(O)(Cc1ccccc1)CN1CCC2(CC1)CSC1=C(O2)c2ccccc2C(=O)C1=O (centres unmarked),186 to 187,–
O=C1C(=O)c2ccccc2C2=C1SCC1(CCCN(C[C@@H](O)Cc3ccccc3)C1)O2 (some centres unmarked),59 to 60,–
O=C1C(=O)c2ccccc2C2=C1SCC1(CCN(C(=O)c3cccc([N+](=O)[O-])c3)CC1)O2,160 to 162,–
O=C1C(=O)c2ccccc2C2=C1SCC1(CCN(C(=O)c3ccc(-n4cccn4)cc3)CC1)O2,299 to 300,–
CCCC(C)N1CCC2(CC1)CSC1=C(O2)c2ccccc2C(=O)C1=O (centres unmarked),109 to 111,–
COc1ccc2c(c1)C(=O)C(=O)C1=C2OC2(CCN(C[C@H](O)COc3ccc(Cl)cc3)CC2)CS1,189 to 191,–
COc1ccc2c(c1)C(=O)C(=O)C1=C2OC2(CCN(C(=O)Oc3cccc(C(F)(F)F)c3)CC2)CS1,233 to 234,–
O=C1C(=O)c2ccccc2C2=C1SCC1(CCN(C(=O)c3nc4ccccc4[nH]3)CC1)O2,266 to 268,–
CC(C)(C)OC(=O)N1CCC(CC(=O)N2CCC3(CC2)CSC2=C(O3)c3ccccc3C(=O)C2=O)CC1,110 to 113,–
O=C1C(=O)c2ccccc2C2=C1SCC1(CCN(C(=O)c3cn4c5c(cccc35)CCC4)CC1)O2,265 to 267,–
O=C1C(=O)c2ccc(Br)cc2C2=C1SCC1(CCN(C(=O)c3cccc(Cl)c3)CC1)O2,135 to 140,–
O=C1C(=O)c2ccc(Br)cc2C2=C1SCC1(CCN(C[C@H](O)COc3ccc(Cl)cc3)CC1)O2,150 to 152,–
